According to patent publication US5567704A, “R-enatiomerically pure hydroxylated xanthine compounds to treat baldness” (priority 1995, dated 1996):

Columns and labels:
[1] = tested on: lysophosphatidic acid acyl transferase (LPAAT); assay: in vitro inhibition of LPAAT in 3T3 Ras-transformed fibroblasts stimulated with IL-1β; format: cell-based; settings: 3T3 Ras-transformed fibroblasts, IL-1β, FIG. 17
Experimental: FIG. 17 illustrates a comparison of CT1501R, its S isomer CT1501S, and PTX on in vitro inhibition of lysophosphatidic acid acyl transferase (LPAAT), an enzyme involved in second messenger signaling. […] LPAAT activity was determined in 3T3 Ras-transformed fibroblasts stimulated with IL-1β.
One in vitro assay measures inhibition of the relevant enzymes lysophosphatidic acid acyltransferase (LPAAT) and phosphatidic acid phosphoryl hydrolase (PAPH). The assay involves incubating of target cells with a primary stimulus (e.g., a variety of cytokines, growth factors, oncogene products, putative therapeutic agents, irradiation, viral infection, toxins, bacterial infection and the products thereof, and any stimulus which, if not counteracted, has a deleterious effect on the target cell) in the presence or absence of an inventive compound at varying dosage levels. Target cells include, for example, subcellular entities, such as, microsomes derived from mesenchymal and/or ectodermal cells, particularly microsomes from marrow stromal cells or human or rat mesangial cells; microsomes or synaptosomes derived from brain; plasma membrane-enriched microsomes, plasma membranes derived as described in Bursten et at. (J. Biol. Chem. 226:20732-20743, 1991 ), or detergent-solubilized microsomes; synaptosomes, and membranes or other cell preparations solubilized using, for example, NP-40, Miranal, SDS or other neutral detergents; and detergent-solubilized, recombinant, or further purified preparations of cell proteins, including the proteins LPAAT and/or PAPH. After incubation for short periods of time, cell lipids are extracted and assayed by […] according to standard procedures. Briefly, lipids are extracted using, for example, chloroform:methanol 2:1 (v/v), and the extracts are then subjected to HPLC as described in Bursten and Harris, Biochemistry 30:6195-6203, 1991. A Rainin® mu-Porasil column is used with a 3:4 hexane:propanol organic carrier and a 1-10% water gradient during the first 10 minutes of separation. Detection of the peaks in the elution pattern is by absorption in the range of ultraviolet which detects isolated double bonds. The relevant peaks of unsaturated PA and DAG are shown in the elution pattern. It is important to note that the assay method permits discrimination between various forms of PA and DAG so that those relevant to the pathway affected by the (R) or (S) compounds of the invention can be measured directly. Confirmation of the nature of the acyl substituents of these components is accomplished using fast-atom bombardment mass spectroscopy. Thus, the relevant unsaturated (non-arachidonic) PA and DAG subspecies may be detected. The time periods employed are 5-60 seconds after stimulation with the primary stimulus, such as a cytokine. This technique permits assessment of the levels of various lipid components as a function of time.

[2] = tested on: nu/nu mice; assay: nude mouse hair studies, topical application; format: in vivo; settings: second experiment; topical twice daily, 34 days
From the text: This example illustrates nude mouse hair studies involving topical application of CT1501R. Six to eight week old, female, nu/nu mice from Charles River Laboratories were housed at Biosupport Research Support Services (Seattle, Wash.) in autoclaved micro isolator units with hyperchlorinated autoclaved water, irradiated rodent chow and kept under a laminar flow hood. Caging was changed weekly, and water was changed twice weekly. The mice were acclimated for 5 days before beginning each study.
The first topical formulation was prepared by adding CT1501R to a heated hydrophilic ointment (USP) at a 1% concentration, and allowed to solidify.
Nude mice were painted twice daily for 16 days with the first topical formulation of CT1501R on the left flank and another compound in the same base on the right flank with sterile applicators. Mice were handled under the laminar flow hood with applicator wearing face mask and sterile gloves. After 16 days, one mouse was sacrificed by cervical dislocation and skin biopsies were taken of the treated areas of the shoulder/flank and from the non-treated area of the dorsal pelvis (rump). Specimens were placed in 10% buffered formalin solution. Biopsies were sent to a veterinary dermopathologist for histopathology. Six weeks following treatment, a second mouse was euthanatized and biopsied the same as the first. Samples were sent for histopathology.
In a second experiment, topical application of CT1501R was performed along with a commercial topical minoxidil preparation (Rogaine®, Upjohn) that is approved for a hair growth indication. Five to six week old, female, nu/nu mice from Bantin and Kingman Universal were housed at Biosupport Research Support Services (Seattle, Wash.) in autoclaved micro isolator units with hyper chlorinated autoclaved water, irradiated rodent chow and kept under a laminar flow hood. Caging was changed weekly, and water was changed twice weekly. Mice were acclimated for 7 days before beginning study.
CT1501R, and two other compounds were prepared in a topical formulation of 60% ETOH, 10% water and 30% PEG along with vehicle only. Minoxidil was purchased as the commercial preparation Rogaine® from a local pharmacy. Rogaine® is sold in the same formulation base. Mice were identified by unique tail markings specific for each test article. Two mice per group were treated with CT1501R and another compound. One mouse was treated with each of vehicle and minoxidil. The mice were handled under the laminar flow hood with the applicator wearing face mask and sterile gloves. Each mouse was treated twice daily with a separate sterile applicator to avoid contamination of the solutions or the mice. All mice were applied a strip of appropriate test article along the center line of the back from the base of the skull to the base of the tail, approximately 1.5 cm wide. After 34 days all mice were euthanatized by overdose of halothane anesthesia. Skin biopsies were taken from each of the 7 mice over the nape of the neck between the scapulas (approximate size was 1×1.5 cm). All specimens were blotted on gauze to remove blood and fluids, affixed to a cut piece of wooden tongue depressor, and placed specimen side down in separately marked containers with 10% buffered formalin. Specimens were shipped to a veterinary dermatopathologist for qualitative histopathological determinations.

[3] = tested on: PBMC (peripheral blood mononuclear cells); assay: two-way mixed lymphocyte reaction (MLR); format: cell-based, human; settings: FIG. 1
From the text: Various in vitro assays can be used to measure effects of the inventive compounds to module immune activity and have antitumor activity using a variety of cellular types. For example, a mixed lymphocyte reaction (MLR) provides a valuable screening tool to determine biological activity of each inventive compound. In the MLR, PBMCs (peripheral blood mononuclear cells) are obtained by drawing whole blood from healthy volunteers in a heparinized container and diluted with an equal volume of hanks balanced salt solution (HBSS). This mixture is layered on a sucrose density gradient, such as a Ficoll-Hypaque® gradient (specific gravity 1.08), and centrifuged at 1000× g for 25 minutes at room temperature or cooler. PBMC are obtained from a band at a plasma-Ficoll interface, separated and washed at least twice in a saline solution, such as HBSS. Contaminating red cells are lysed, such as by ACK lysis for 10 min at 37° C., and the PBMCs are washed twice in HBSS. The pellet of purified PBMCs is resuspended in complete medium, such as RPMI 1640 plus 20% human inactivated serum. Proliferative response of PBMC to allogeneic stimulation is determined in a two-way MLR performed in a 96-well microtiter plate. […] At the conclusion of the incubation tritiated thymidine is added (for example, 1 μCi/well of 40 to 60 Ci/mmole) and proliferation determined by liquid scintillation counting. […]

[4] = tested on: smooth muscle cell; assay: smooth muscle proliferation stimulated by PDGF and IL-1; format: cell-based; settings: PDGF and IL-1; drug added two hours prior, FIG. 4
From the text: CT1501R and PTX were separately added to the cells two hours prior to activation with PDGF and IL-1.

[5] = tested on: stromelysin/PUMP-1; assay: PUMP-1 activity induced by IL-1; format: cell-based; settings: induced by 100 U/ml of IL-1
From the text: Metalloproteases mediate tissue damage such as glomerular diseases of the kidney, joint destruction in arthritis, and lung destruction in emphysema, and play a role in tumor metastases. Three examples of metalloproteases include a 92 kD type V gelatinase induced by TNF, IL-1 and PDGF plus bFGF, a 72 kD type IV collagenase that is usually constitutive and induced by TNF or IL-1, and a stromelysin/PUMP-1 induced by TNF and IL-1. The inventive compounds can inhibit TNF or IL-1 induction of the 92 kD type V gelatinase inducable metalloprotease. Moreover, CT 1501R reduced PUMP- 1 activity induced by 100 U/ml of IL-1 to 15% of its control levels. […] Accordingly, the inventive compounds prevent induction of certain metalloproteases induced by IL-1 or TNF and are not involved with constitutively produced proteases (e.g., 72 kD type IV collagenase) involved in normal tissue remodeling.

[6] = metabolized in humans; cited from earlier work

Compound	inhibition of LPAAT enzyme activity [1]	hair follicles, subjective histopathological examination [2]	proliferative response of PBMC to allogeneic stimulation [3]	inhibition of smooth muscle cell proliferation [4]	PUMP-1 activity, % of control levels [5] [%]	metabolic conversion of PTX [6]
C[C@H](O)CCCCn1c(=O)c2c(ncn2C)n(C)c1=O [CT1501S]	only CT1501R significantly inhibited enzyme activity	–	–	–	–	–
Nc1cc(N2CCCCC2)nc(N)[n+]1[O-] [minoxidil, reference compound]	–	fair response to treatment	–	–	–	–
CC(=O)CCCCn1c(=O)c2c(ncn2C)n(C)c1=O [PTX, 1-(5-oxohexyl)-3,7-dimethylxanthine, reference compound]	only CT1501R significantly inhibited enzyme activity	–	showed dose-response activity	inhibited smooth muscle cell proliferation at the higher doses tested	95	converted almost exclusively to the S enantiomer of MI
